Measurements as given in patent publication US7960427B2, “5-hydroxyindole-3-carboxylate derivatives and uses thereof” (priority 2004, dated 2011).
In brackets after ≈: the same amount, converted by molar mass. Structures can show the parent of a compound that is named as a salt.

Columns and labels:
HBsAg = assay: In vitro anti-HBV activity: HBsAg production in HBV-infected 2.2.15 cells (RIA); assay type: cell-based, Hepatitis B virus (HBV); details: for IC50: Hepatitis B virus, read-out: HBsAg IC50; for HBsAg SI: selectivity index
Experimental: (§1) All compounds were evaluated for their anti-HBV activities, namely the ability to inhibit the replication of HBV DNA and the production of HBsAg and HBeAg in HBV-infected 2.2.15 cells.
(§2) The samples were dissolved in DMSO for appropriate concentrations, and then each was diluted 3-fold with culture medium. The 2.2.15 cells were planted into 96-well culture plates. […] The culture supernatants and 2.2.15 cells were collected respectively on the 8th plant day. The secretion concentrations of HBsAg and HBeAg in the culture supernatants were measured by RIA on SPRIA Kit for Detection of HBsAg and HBeAg (Beijing North Institute of Biological Technology), and the replication of HBV DNA was measured by dot hybridization with a^32PdCTP (FuRui Biological Technology Ltd., China).

HBV DNA = assay: In vitro anti-HBV activity: replication of HBV DNA in 2.2.15 cells (dot hybridization); assay type: cell-based, Hepatitis B virus (HBV); details: for IC50: Hepatitis B virus, read-out: DNA replication IC50; for DNA replication SI: selectivity index
Experimental: as §1, §2

2.2.15 cells = assay: Cytotoxicity (TC50) in 2.2.15 cells; assay type: cell-based
Experimental: as §1, §2

HIV-1 protease = target: T1, HIV-1 protease (Human immunodeficiency virus type 1 group M subtype B, UniProt P04585); assay: Anti-HIV-1 protease activity (fluorescence labeled substrate); assay type: biochemical; details: for inhibition ratio at 0.5 ug/ml: sample concentration 0.5 ug/ml; for inhibition ratio at 2.0 ug/ml: sample concentration 2.0 ug/ml; for inhibition ratio at 10 ug/ml: sample concentration 10 ug/ml; for inhibition ratio at 50 ug/ml: sample concentration 50 ug/ml; for inhibition ratio at 250 ug/ml: sample concentration 250 ug/ml
T1 construct: The genetically engineered target enzyme (HIV-1 protease, preserved at −85° C.)
Experimental: HIV-1 protease can cut the fluorescence labeled substrate under optimal condition and reaction system, so the activity of enzyme is determined by the fluorescence in the product of enzymatic reaction. The samples are added into the reaction system to observe the inhibitive effect on the enzyme.
The samples and the reference drug Indinavir ([…].) were dissolved in DMSO or redistilled water for appropriate concentration. Each was diluted 5-fold and then added into the buffer containing fluorescence labeled substrate (MP Co.). The genetically engineered target enzyme (HIV-1 protease, preserved at −85° C.) was added to the buffer and incubated under the optimal reaction condition. The fluorescence was determined by FLUO star Galaxy fluorometer.

[1] = test system: influenza A virus, strain A/jifang/90-15; assay: microbe, parasite or virus in culture; assay type: cell-based; details: Influenza strain A/jifang/90-15, MDCK cells, CPE, Reed-Muench

Row | SMILES | IC50 (HBsAg) [µg/mL] | HBsAg SI (HBsAg) | IC50 (HBV DNA) [µg/mL] | DNA replication SI (HBV DNA) | TC50 (2.2.15 cells) [µg/mL] | IC50 (HIV-1 protease) [µM] | inhibition ratio at 0.5 ug/ml (HIV-1 protease) | inhibition ratio at 2.0 ug/ml (HIV-1 protease) | inhibition ratio at 10 ug/ml (HIV-1 protease) | inhibition ratio at 50 ug/ml (HIV-1 protease) | inhibition ratio at 250 ug/ml (HIV-1 protease) | IC50 [1] [µg/mL]
1 | CCOC(=O)c1c(C[S+]([O-])Cc2cscn2)n(C2CC2)c2cc(Br)c(O)c(CN(C)C)c12 (stereo not shown) [Example 52, Ethyl 6-bromo-1-cyclopropyl-4-[(dimethylamino)methyl]-5-hydroxy-2-[(4-thiazolylmethyl)sulfinylmethyl]-1H-indole-3-carboxylate dihydrochloride] | 4.79 | 13.39 | 3.51 | 18.27 | 64.15 | – | – | – | – | – | – | –
2 | CCOC(=O)c1c(C[S+]([O-])c2ccc(F)cc2)n(C)c2cc(Br)c(O)c(Cn3ccnc3)c12 (stereo not shown) [Example 122, Ethyl 6-bromo-5-hydroxy-4-[(1-imidazolyl)methyl]-1-methyl-2-[(4-fluorophenyl)sulfinylmethyl]-1H-indole-3-carboxylate] | 11.4 (≈ 21.3 µM) | 4.23 | 13.6 (≈ 25.5 µM) | 3.54 | 48.1 (≈ 90 µM) | – | – | – | – | – | – | –
3 | CCOC(=O)c1c(C[S+]([O-])c2ccc(C(F)(F)F)cc2)n(C)c2cc(Br)c(O)c(Cn3ccnc3)c12 (stereo not shown) [Example 177, Ethyl 6-bromo-5-hydroxy-4-[(1-imidazolyl)methyl]-1-methyl-2-[(4-trifluoromethylphenyl)sulfinylmethyl]-1H-indole-3-carboxylate] | 31.5 (≈ 53.8 µM) | 3.39 | 15.9 (≈ 27.2 µM) | 6.72 | 106.83 (≈ 183 µM) | – | – | – | – | – | – | –
4 | CCOC(=O)c1c(C[S+]([O-])c2ccc(F)cc2)n(C)c2cc(Br)c(O)c(CNC(=N)N)c12 (stereo not shown) [Example 153, Ethyl 6-bromo-4-(guanidinylmethyl)-5-hydroxy-1-methyl-2-[(4-fluorophenyl)sulfinylmethyl]-1H-indole-3-carboxylate] | 62.2 (≈ 118 µM) | 2.01 | 29.3 (≈ 55.8 µM) | 4.27 | 125 (≈ 238 µM) | 133 | 7.2 | 14.7 | 11.2 | 24.1 | 75.3 | –
5 | CCOC(=O)c1c(C[S+]([O-])Cc2ccco2)n(C)c2cc(Br)c(O)c(CN3CCCC3)c12 (stereo not shown) [Example 71, Ethyl 6-bromo-5-hydroxy-1-methyl-4-(1-pyrrolidinylmethyl)-2-[(2-furylmethyl)sulfinylmethyl]-1H-indole-3-carboxylate] | 18.4 (≈ 35.1 µM) | 2.09 | 23.9 (≈ 45.6 µM) | 1.60 | 38.32 (≈ 73.2 µM) | – | – | – | – | – | – | –
6 | NC(=O)c1ncn([C@@H]2O[C@H](CO)[C@@H](O)[C@H]2O)n1 [Ribovirin, reference compound] | – | – | – | – | – | – | – | – | – | – | – | >33.81
7 | CCOC(=O)c1c(CSc2nc3ccccc3[nH]2)n(C)c2cc(Br)c(O)c(Cn3ccnc3C)c12.Cl [Example 181, Ethyl 6-bromo-5-hydroxy-1-methyl-4-[(2-methyl-1-imidazolyl)methyl]-2-[(benzo[d]imidazol-2-yl)thiomethyl]-1H-indole-3-carboxylate hydrochloride] | 1.55 | 13.79 | – | – | 21.38 | – | – | – | – | – | – | –
8 | CCOC(=O)c1c(CS(=O)(=O)c2ccc(C(F)(F)F)cc2)n(C)c2cc(Br)c(O)c(CN3CCCC3)c12 [Example 82, Ethyl 6-bromo-5-hydroxy-1-methyl-4-(1-pyrrolidinylmethyl)-2-[(4-trifluoromethylphenyl)sulfonylmethyl]-1H-indole-3-carboxylate] | 7.83 (≈ 13 µM) | 1.82 | 6.1 (≈ 10.1 µM) | 2.34 | 14.25 (≈ 23.6 µM) | – | – | – | – | – | – | –
9 | CCOC(=O)c1c(C[S+]([O-])c2ccc(F)cc2)n(C)c2cc(Br)c(O)c(CN3CCOCC3)c12 (stereo not shown) [Example 58, Ethyl 6-bromo-5-hydroxy-1-methyl-4-(morpholinomethyl)-2-[(4-fluorophenyl)sulfinylmethyl]-1H-indole-3-carboxylate] | – | – | 57.6 (≈ 104 µM) | >8.7 | >500 | – | 11.7 | 11.6 | 15.9 | 22.9 | 37.4 | –
10 | CCOC(=O)c1c(CSc2nc3ccccc3[nH]2)n(C)c2cc(Br)c(O)c(Cn3ccnc3)c12.Cl [Example 94, Ethyl 6-bromo-5-hydroxy-4-[(1-imidazolyl)methyl]-1-methyl-2-[(benzo[d]imidazol-2-yl)thiomethyl]-1H-indole-3-carboxylate hydrochloride] | 7.37 | 7.25 | – | – | 53.42 | – | – | – | – | – | – | –
11 | CCOC(=O)c1c(C[S+]([O-])c2ccc(F)c(F)c2)n(C2CC2)c2cc(Br)c(O)c(CN3CCN(C)CC3)c12 (stereo not shown) [Example 67, Ethyl 6-bromo-1-cyclopropyl-5-hydroxy-4-[(4-methyl-1-piperazinyl)methyl]-2-[(3,4-difluorophenyl)sulfinylmethyl]-1H-indole-3-carboxylate dihydrochloride] | – | – | 5.4 | 6.35 | 34.35 | – | 3.2 | 10.5 | 9.4 | 0.5 | 19.3 | –
12 | CCOC(=O)c1c(CSc2cccc(F)c2)n(C)c2cc(Br)c(O)c(Cn3ccnc3)c12 [Example 175, Ethyl 6-bromo-5-hydroxy-4-[(1-imidazolyl)methyl]-1-methyl-2-[(3-fluorophenyl)thiomethyl]-1H-indole-3-carboxylate] | 2.45 (≈ 4.73 µM) | 14.53 | 4.65 (≈ 8.97 µM) | 7.66 | 35.61 (≈ 68.7 µM) | – | – | – | – | – | – | –
13 | CCOC(=O)c1c(C[S+]([O-])c2ccc(C(F)(F)F)cc2)n(C2CC2)c2cc(Br)c(O)c(CN(C)C)c12 (stereo not shown) [Example 79, Ethyl 6-bromo-1-cyclopropyl-4-[(dimethylamino)methyl]-5-hydroxy-2-[(4-trifluoromethylphenyl)sulfinylmethyl]-1H-indole-3-carboxylate] | 6.3 (≈ 10.7 µM) | 2.72 | 4.47 (≈ 7.61 µM) | 3.83 | 17.12 (≈ 29.1 µM) | – | – | – | – | – | – | –
14 | CCOC(=O)c1c(CSc2ccc(F)cc2)n(C)c2cc(Br)c(O)c(CN3CCN(C)CC3)c12 [Example 17, Ethyl 6-bromo-5-hydroxy-1-methyl-4-[(4-methyl-1-piperazinyl)methyl]-2-[(4-fluorophenyl)thiomethyl]-1H-indole-3-carboxylate dihydrochloride] | – | – | 17.8 | 3.5 | 62.50 | – | −6.1 | −8.3 | −13.0 | −17.3 | 27.6 | –
15 | CCOC(=O)c1c(CS(=O)(=O)c2cccc(C(F)(F)F)c2)n(C2CC2)c2cc(Br)c(O)c(CN3CCCC3)c12 [Example 83, Ethyl 6-bromo-1-cyclopropyl-5-hydroxy-4-(1-pyrrolidinylmethyl)-2-[(3-trifluoromethylphenyl)sulfonylmethyl]-1H-indole-3-carboxylate] | 18.3 (≈ 29.1 µM) | 1.94 | 6.38 (≈ 10.1 µM) | 5.58 | 35.61 (≈ 56.6 µM) | – | – | – | – | – | – | –
